The values below come from US20180362485A1, “N-HYDROXYFORMAMIDE COMPOUNDS AND COMPOSITIONS COMPRISING THEM FOR USE AS BMP l, TLL1 AND/OR TLL2 INHIBITORS” (GlaxoSmithKline Intellectual Property (No. 2) Limited, priority 2015, published 2018).

The subject of test [1] is Generation of Procollagen I C-Terminal Propeptide (PICP). As to the kind of experiment: Cell-based inhibition assay of generation of procollagen I C-terminal propeptide (PICP), PICP ELISA. As to conditions: Cardiac fibroblast, human cardiac fibroblasts, 24 to 48 hr, read-out: pIC50, PICP cellular inhibition assay (converted). The method, then:
(§1) An adaptation of the collagen deposition assay described by Chen, C. Z. C., et al., British Journal of Pharmacology, 2009, 158, 1196-1209 is used to examine effect of compounds on procollagen I processing and collagen deposition. In the adapted assay, human cardiac fibroblasts are utilized. Processing of procollagen I is determined by a PICP ELISA assay and deposition of mature collagen is determined by immunostaining.
(§2) Human cardiac fibroblasts are cultured and maintained until passage 6 in FGM-3 media (Lonza, #CC-3132) in a 37° C. humidified incubator with 5% CO2. They are then seeded in 96-well black wall, clear bottom plates at 10,000 to 15,000 cells per well in eagle's minimum essential media (EMEM, ATCC #30-2003) containing 10% fetal bovine serum (FBS, Life Technologies #10082147), 1% Glutamax (Life Technologies #35050061) and 1% Penicillin and Streptomycin (Life Technologies #15070063). These cultures are placed in 37° C. incubator. The next day, media is removed by aspiration and cells are rinsed with phosphate buffered saline. Crowding media (also called ficoll media) is prepared by adding 112.5 mg/ml of ficoll70 and 75 mg/ml ficoll400 (GE healthcare #17-0310-10 and 17-0300-10, respectively), 100 μM ascorbic acid, 1% Glutamax and 1% Penicillin and Streptomycin to EMEM media. Test compounds (dissolved in DMSO) are diluted into crowding media and then added to the cells. Final concentration of DMSO in crowding media is less than 0.3%. Cells are treated for 24 to 48 hr in a 37° C. incubator. At the end of the treatment period, cell media are collected. The level of PICP in the media is determined by a PICP ELISA assay (Quidel #8003) following the manufacturer's protocol. Potencies of test compounds are calculated by fitting PICP levels, relative to untreated controls, to log (inhibitor) vs. response equation using Graphpad Prism software 5.0 and expressed as pIC50.

Test [2] concerns deposition of mature collagen. As to the kind of experiment: Cell-based inhibition assay of mature collagen deposition (immunostaining). Particulars: Cardiac fibroblast; human cardiac fibroblasts, immunostaining of mature collagen I; read-out: pIC50, mature collagen cellular inhibition assay (converted). As to the method:
as §1, §2
For some compounds, deposition of mature collagen is measured by immunostaining in addition to PICP levels. At the end of the treatment period, cells on culture plate are fixed with 100% methanol (prechilled to −20° C.) for 10 min. Then the cells are immunostained with mouse anti-mature collagen I antibody (1:500 dilution, Sigma#C2456), anti-mouse secondary antibody Alexa647 (1:500 dilution, Invitrogen#A21236) and Hoechst (for nuclei, 2 μg/ml, Invitrogen#H3596). Fluorescent image acquisition is done using the Operetta High Content Imaging system (Perkin Elmer). For each image field, the intensity of mature collagen staining is normalized with the number of nuclei. Normalized collagen levels are used to calculate the potency of test compounds with Graphpad Prism software, as described above.

Where a name gives a salt, the structure may show the parent alone.

On to `CCCCC[C@@H](C(=O)NCNC(=O)c1ccc(-c2ccc(C(=O)N[C@@H](CC(=O)O)C(=O)OCC)c(OCC)c2)o1)[C@@H](CC)N(O)C=O` [Example 113, (S)-4-ethoxy-3-(2-ethoxy-4-(5-((((R)-2-((R)-1-(N-hydroxyformamido)propyl)heptanamido)methyl)carbamoyl)furan-2-yl)benzamido)-4-oxobutanoic acid], for which the IC50 in test [1] was below 398 nM.

`CCCCC[C@@H](C(=O)NCNC(=O)c1ccc(-c2ccc(C(=O)N[C@@H](CC(=O)O)C(=O)OC(C)(C)C)c(OCC)c2)o1)[C@@H](CC)N(O)C=O` [Example 114, (S)-4-(tert-butoxy)-3-(2-ethoxy-4-(5-((((R)-2-((R)-1-(N-hydroxyformamido)propyl)heptanamido)methyl)carbamoyl)furan-2-yl)benzamido)-4-oxobutanoic acid]: the IC50 in test [1] is below 398 nM.

On to `CCCCC[C@@H](C(=O)NCNC(=O)c1ccc(-c2ccc(C(=O)N[C@@H](CC(=O)O)C(=O)O)c(OCC)c2)o1)[C@@H](CC)N(O)C=O` [WO2015/104684 Example 74, (S)-2-(2-ethoxy-4-(5-((((R)-2-((R)-1-(N-hydroxyformamido)propyl)heptanamido)methyl)carbamoyl)furan-2-yl)benzamido)succinic acid], for which the IC50 in test [2] was below 1000 nM.

`CCCCC[C@@H](C(=O)NCNC(=O)c1ccc(-c2ccc(C(=O)OCCCC)cc2)o1)[C@@H](CC)N(O)C=O` [Example 101, butyl 4-(5-((((R)-2-((R)-1-(N-hydroxyformamido)propyl)heptanamido)methyl)carbamoyl)furan-2-yl)benzoate]: the IC50 in test [1] is below 398 nM.

As for `CCCCC[C@@H](C(=O)NCNC(=O)c1ccc(-c2ccc(C(=O)N[C@@H](CC(=O)OCC)C(=O)OCC)c(OCC)c2)o1)[C@@H](CC)N(O)C=O` [Example 143, (S)-diethyl 2-(2-ethoxy-4-(5-((((R)-2-((R)-1-(N-hydroxyformamido)propyl)heptanamido)methyl)carbamoyl)furan-2-yl)benzamido)succinate], the IC50 in test [1] is below 398 nM.

Regarding `CCCCC[C@@H](C(=O)NCNC(=O)c1ccc(-c2cc(OCC)cc(P(=O)(O)OCOC(=O)OC(C)C)c2)o1)[C@@H](CC)N(O)C=O` [Example 302, (((3-ethoxy-5-(5-((((R)-2-((R)-1-(N-hydroxyformamido)propyl)heptanamido)methyl)carbamoyl)furan-2-yl)phenyl) (hydroxy)phosphoryl)oxy)methyl isopropyl carbonate], the IC50 in test [1] is below 398 nM.

On to `CCCCC[C@@H](C(=O)NCNC(=O)c1ccc(-c2ccc(C(=O)N[C@@H](CC(=O)O)C(=O)O)c(OCC(=O)O)c2)o1)[C@@H](CC)N(O)C=O` [WO2015/104684 Example 126, (S)-2-(2-(carboxymethoxy)-4-(5-((((R)-2-((R)-1-(N-hydroxyformamido)propyl)heptanamido)methyl)carbamoyl)furan-2-yl)benzamido)succinic acid], for which, in test [2], the IC50 was below 1000 nM.

For the compound `CCCCC[C@@H](C(=O)NCNC(=O)c1ccc(-c2cc(OCC)cc(P(=O)(O)Oc3ccccc3)c2)o1)[C@@H](CC)N(O)C=O` [Example 400, Phenyl Hydrogen (3-ethoxy-5-(5-((((R)-2-((R)-1-(N-hydroxyformamido)propyl)heptanamido)methyl)carbamoyl)furan-2-yl)phenyl)phosphonate, Ammonia Salt], the IC50 in test [1] is below 398 nM.

With `CCCCC[C@@H](C(=O)NCNC(=O)c1ccc(-c2cc(OCC)cc(P(=O)(OCOC(C)=O)OCOC(C)=O)c2)o1)[C@@H](CC)N(O)C=O` [Example 115, (((3-ethoxy-5-(5-((((R)-2-((R)-1-(N-hydroxyformamido)propyl)heptanamido)methyl)carbamoyl)furan-2-yl)phenyl)phosphoryl)bis(oxy))bis (methylene) diacetate], the IC50 in test [1] is below 398 nM.

For `CCCCC[C@@H](C(=O)NCNC(=O)c1ccc(-c2ccc(C(=O)N[C@@H](CC(=O)O)C(=O)OCOC(=O)c3ccccc3)c(OCC)c2)o1)[C@@H](CC)N(O)C=O` [Example 116, (S)-4-((benzoyloxy)methoxy)-3-(2-ethoxy-4-(5-((((R)-2-((R)-1-(N-hydroxyformamido)propyl)heptanamido)methyl)carbamoyl)furan-2-yl)benzamido)-4-oxobutanoic acid], the IC50 in test [1] was below 398 nM.

Turning to `CCCCC[C@@H](C(=O)NCNC(=O)c1ccc(-c2ccc(C(=O)OCCN(C)C)cc2)o1)[C@@H](CC)N(O)C=O` [Example 104, 2-(dimethylamino) ethyl 4-(5-((((R)-2-((R)-1-(N-hydroxyformamido)propyl)heptanamido)methyl)carbamoyl)furan-2-yl)benzoate], the IC50 in test [1] was below 398 nM.

`CCCCC[C@@H](C(=O)NCNC(=O)c1ccc(-c2ccc(C(=O)NCP(=O)(O)O)c(OCC)c2)o1)[C@@H](CC)N(O)C=O` [WO2015/104684 Example 139, ((2-ethoxy-4-(5-((((R)-2-((R)-1-(N-hydroxyformamido)propyl)heptanamido)methyl)carbamoyl)furan-2-yl)benzamido)methyl)phosphonic acid]: in test [2], the IC50 is below 1000 nM.

`CCCCC[C@@H](C(=O)NCNC(=O)c1ccc(-c2ccc(C(=O)N[C@@H](CC(=O)OC)C(=O)OC)c(OCC(=O)OC)c2)o1)[C@@H](CC)N(O)C=O` [Example 142, (S)-dimethyl 2-(4-(5-((((R)-2-((R)-1-(N-hydroxyformamido)propyl)heptanamido)methyl)carbamoyl)furan-2-yl)-2-(2-methoxy-2-oxoethoxy)benzamido)succinate]: in test [1], the IC50 was below 398 nM.

In the case of `CCCCC[C@@H](C(=O)NCNC(=O)c1ccc(-c2ccc(C(=O)OCC)cc2)o1)[C@@H](CC)N(O)C=O` [Example 100, ethyl 4-(5-((((R)-2-((R)-1-(N-hydroxyformamido)propyl)heptanamido)methyl)carbamoyl)furan-2-yl)benzoate], the IC50 in test [1] is below 398 nM.

With `CCCCC[C@@H](C(=O)NCNC(=O)c1ccc(-c2ccc(C(=O)N[C@@H](CC(=O)OC(C)(C)C)C(=O)OC(C)(C)C)c(OCC)c2)o1)[C@@H](CC)N(O)C=O` [Example 112, (S)-di-tert-butyl 2-(2-ethoxy-4-(5-((((R)-2-((R)-1-(N-hydroxyformamido)propyl)heptanamido)methyl)carbamoyl)furan-2-yl)benzamido) succinate], the IC50 in test [1] was below 398 nM.

Turning to `CCCCC[C@@H](C(=O)NCNC(=O)c1ccc(-c2cc(OCC)cc(P(=O)(O)O)c2)o1)[C@@H](CC)N(O)C=O` [WO2015/104684 Example 96, (3-ethoxy-5-(5-((((R)-2-((R)-1-(N-hydroxyformamido)propyl)heptanamido)methyl)carbamoyl)furan-2-yl)phenyl)phosphonic acid], the IC50 in test [2] was below 1000 nM.
